Laboratory results reported in patent US11045669B2, “Hydroalcoholic extract of Schinus molle, cosmetic compositions comprising the same and cosmetic uses thereof” (ISP INVESTMENTS LLC, priority 2015, dated 2021).

Tests used:
[1] = tested on: Ribosomal protein S28 (RPS28); experiment: RT-qPCR expression of RPS28 (housekeeping) in NHEK; assay type: cell-based, human; details: 24 h, CaCl2 1.5 mM
Experimental: (§1) The potential effects of a hydroethanolic extract of Schinus molle obtained in accordance with Example 2 on skin hydration and barrier function were studied in a model of normal human epidermal keratinocytes (NHEKs) by analysing the expression profile of genes specific to the differentiation of keratinocytes and lipid synthesis by an RT-qPCR (reverse transcription quantitative polymerase chain reaction) method.
(§2) • Cell type: 3rd passage NHEKs • Culture conditions: 37° C., 5% CO2 • Culture medium: keratinocyte SFM (serum free medium) supplemented with • epidermal growth factor (EGF) 0.25 ng/ml • pituitary extract (PE) 25 μg/ml • gentamicin 25 μg/ml • Test medium: keratinocyte SFM supplemented with gentamicin 25 μg/ml Tested Compounds
(§3) The normal human epidermal keratinocytes (NHEKs) were seeded and cultivated in culture medium for 24 hours. […] All the conditions were performed with n=3.
(§4) The expression of the markers was assessed by RT-qPCR on the mRNAs (messenger RNAs) extracted from the cell layers of each treatment (the replicates were pooled before the RNA extraction).
(§5) The analysis of the expression of the genes was performed with n=2 with the aid of 2 “marker quantitative PCR arrays” containing 16 genes, including 2 housekeeping (HK) genes, dedicated to research and adapted to the screening format (mQPA-NHEK-BARRIER-16, product by BIOalternatives®).
(§6) The incorporation of fluorescence in the amplified DNA is measured continuously during the course of the PCR cycles. These measurements make it possible to obtain intensity curves of the fluorescence depending on the PCR cycles and to thus evaluate a value of relative expression (RE) for each marker. The number of cycles is determined on the basis of “exit” points of the fluorescence curves. For the same analysed marker, the later a sample exits (appeared late, after a number of increased cycles), the lower is the initial number of copies of the mRNA.
(§7) The RE (relative expression) value is expressed in arbitrary units (AU) in accordance with the following formula: (½^number of cycles)×10^6 […]

[2] = tested on: Glyceraldehyde-3-phosphate dehydrogenase (GAPDH); details: NHEK, 24 h, CaCl2 1.5 mM
Experimental: as §1, §2, §3, §4, §5, §6, §7

[3] = tested on: Aquaporin 3 (AQP3); experiment: RT-qPCR expression of AQP3 in NHEK; assay type: cell-based, human; details: 24 h, CaCl2 1.5 mM
Experimental: as §1, §2, §3, §4, §5, §6, §7

[4] = tested on: Hyaluronan synthase 3 (HAS3); experiment: RT-qPCR expression of HAS3 in NHEK; assay type: cell-based, human; details: 24 h, CaCl2 1.5 mM
Experimental: as §1, §2, §3, §4, §5, §6, §7

[5] = tested on: Acyl-CoA synthetase short-chain family member 2 (ACSS2); experiment: RT-qPCR expression of ACSS2 in NHEK; assay type: cell-based, human; details: 24 h, CaCl2 1.5 mM
Experimental: as §1, §2, §3, §4, §5, §6, §7

[6] = tested on: Fatty acid synthase (FASN); experiment: RT-qPCR expression of FASN in NHEK; assay type: cell-based, human; details: 24 h, CaCl2 1.5 mM
Experimental: as §1, §2, §3, §4, §5, §6, §7

[7] = tested on: Serine palmitoyltransferase, long chain base subunit 1 (SPTLC1); experiment: RT-qPCR expression of SPTLC1 in NHEK; assay type: cell-based, human; details: 24 h, CaCl2 1.5 mM
Experimental: as §1, §2, §3, §4, §5, §6, §7

[8] = tested on: LAG1 homolog, ceramide synthase 6 (LASS6); experiment: RT-qPCR expression of LASS6 in NHEK; assay type: cell-based, human; details: 24 h, CaCl2 1.5 mM
Experimental: as §1, §2, §3, §4, §5, §6, §7

[9] = tested on: UDP-glucose ceramide glucosyltransferase (UGCG); experiment: RT-qPCR expression of UGCG in NHEK; assay type: cell-based, human; details: 24 h, CaCl2 1.5 mM
Experimental: as §1, §2, §3, §4, §5, §6, §7

[10] = tested on: Sphingomyelin phosphodiesterase 1, acid lysosomal (SMPD1); experiment: RT-qPCR expression of SMPD1 in NHEK; assay type: cell-based, human; details: 24 h, CaCl2 1.5 mM
Experimental: as §1, §2, §3, §4, §5, §6, §7

[11] = tested on: Glucosidase, beta; acid (GBA); experiment: RT-qPCR expression of GBA in NHEK; assay type: cell-based, human; details: 24 h, CaCl2 1.5 mM
Experimental: as §1, §2, §3, §4, §5, §6, §7

[12] = tested on: Sulfotransferase family, cytosolic, 2B, member 1 (SULT2B1); experiment: RT-qPCR expression of SULT2B1 in NHEK; assay type: cell-based, human; details: 24 h, CaCl2 1.5 mM
Experimental: (§8) The potential effects of a hydroethanolic extract of Schinus molle obtained in accordance with Example 2 on skin hydration and barrier function were studied in a model of normal human epidermal keratinocytes (NHEKs) by analysing the expression profile of genes specific to the differentiation of keratinocytes and lipid synthesis by an RT-qPCR (reverse transcription quantitative polymerase chain reaction) method. […]
as §4, §5
(§9) The incorporation of fluorescence in the amplified DNA is measured continuously during the course of the PCR cycles. These measurements make it possible to obtain intensity curves of the fluorescence depending on the PCR cycles and to thus evaluate a value of relative expression (RE) for each marker. The number of cycles is determined on the basis of “exit” points of the fluorescence curves. […]

[13] = tested on: Arachidonate 12-lipoxygenase (ALOX12); experiment: RT-qPCR expression of ALOX12 in NHEK; assay type: cell-based, human; details: 24 h, CaCl2 1.5 mM
Experimental: as §8, §4, §5, §9

[14] = tested on: Claudin 1 (CLDN1); experiment: RT-qPCR expression of CLDN1 in NHEK; assay type: cell-based, human; details: 24 h, CaCl2 1.5 mM
Experimental: as §1, §2, §3, §4, §5, §6, §7

[15] = tested on: Filaggrin (FLG); experiment: RT-qPCR expression of FLG in NHEK; assay type: cell-based, human; details: 24 h, CaCl2 1.5 mM
Experimental: as §8, §4, §5, §9

[16] = tested on: Involucrin (IVL); experiment: RT-qPCR expression of IVL in NHEK; assay type: cell-based, human; details: 24 h, CaCl2 1.5 mM
Experimental: as §8, §4, §5, §9

[17] = tested on: Transglutaminase 1 (TGM1); experiment: RT-qPCR expression of TGM1 in NHEK; assay type: cell-based, human; details: 24 h, CaCl2 1.5 mM
Experimental: as §8, §4, §5, §9

Compound: [Ca+2].[Cl-].[Cl-] [CaCl2, calcium chloride]
- RPS28 expression, % Control (GAPDH) [1]: 96 % Control
- RPS28 expression, % Control (RPS28) [1]: 100 % Control
- RPS28 expression, % Control (mean HK) [1]: 97 % Control
- GAPDH expression, % Control (GAPDH) [2]: 100 % Control
- GAPDH expression, % Control (RPS28) [2]: 104 % Control
- GAPDH expression, % Control (mean HK) [2]: 101 % Control
- AQP3 expression, % Control (GAPDH) [3]: 110 % Control
- AQP3 expression, % Control (RPS28) [3]: 115 % Control
- AQP3 expression, % Control (mean HK) [3]: 111 % Control
- HAS3 expression, % Control (GAPDH) [4]: 108 % Control
- HAS3 expression, % Control (RPS28) [4]: 112 % Control
- HAS3 expression, % Control (mean HK) [4]: 108 % Control
- ACSS2 expression, % Control (GAPDH) [5]: 127 % Control
- ACSS2 expression, % Control (RPS28) [5]: 132 % Control
- ACSS2 expression, % Control (mean HK) [5]: 128 % Control
- FASN expression, % Control (GAPDH) [6]: 105 % Control
- FASN expression, % Control (RPS28) [6]: 109 % Control
- FASN expression, % Control (mean HK) [6]: 106 % Control
- SPTLC1 expression, % Control (GAPDH) [7]: 95 % Control
- SPTLC1 expression, % Control (RPS28) [7]: 99 % Control
- SPTLC1 expression, % Control (mean HK) [7]: 96 % Control
- LASS6 expression, % Control (GAPDH) [8]: 103 % Control
- LASS6 expression, % Control (RPS28) [8]: 107 % Control
- LASS6 expression, % Control (mean HK) [8]: 104 % Control
- UGCG expression, % Control (GAPDH) [9]: 118 % Control
- UGCG expression, % Control (RPS28) [9]: 123 % Control
- UGCG expression, % Control (mean HK) [9]: 119 % Control
- SMPD1 expression, % Control (GAPDH) [10]: 108 % Control
- SMPD1 expression, % Control (RPS28) [10]: 113 % Control
- SMPD1 expression, % Control (mean HK) [10]: 109 % Control
- GBA expression, % Control (GAPDH) [11]: 123 % Control
- GBA expression, % Control (RPS28) [11]: 128 % Control
- GBA expression, % Control (mean HK) [11]: 124 % Control
- SULT2B1 expression, % Control (GAPDH) [12]: 244 % Control
- SULT2B1 expression, % Control (RPS28) [12]: 254 % Control
- ALOX12 expression, % Control (GAPDH) [13]: 151 % Control
- ALOX12 expression, % Control (RPS28) [13]: 158 % Control
- CLDN1 expression, % Control (GAPDH) [14]: 145 % Control
- CLDN1 expression, % Control (RPS28) [14]: 152 % Control
- CLDN1 expression, % Control (mean HK) [14]: 147 % Control
- FLG expression, % Control (GAPDH) [15]: 151 % Control
- FLG expression, % Control (RPS28) [15]: 157 % Control
- IVL expression, % Control (GAPDH) [16]: 175 % Control
- IVL expression, % Control (RPS28) [16]: 183 % Control
- TGM1 expression, % Control (GAPDH) [17]: 274 % Control
- TGM1 expression, % Control (RPS28) [17]: 285 % Control
